The source of these data is patent US20070253994A1, “Intraspinal Drug Delivery Methods and Devices To Alleviate Chronic Pelvic Pain” (Medtronic, Inc., priority 2006, published 2007).

Entries after “also recorded” stand apart in the source; their conditions may differ. Where a name gives a salt, the structure may show the parent alone.

The subject of test [1] is micturition reflex of female rats. The test is described as follows: micturition reflex (cystometrogram) of female rats in the interstitial cystitis (IC) model of visceral pain, acetic acid bladder infusion. The note with it: for frequency of acetic-acid-induced contractions compared with rate during saline infusion, both doses: both doses of Table 1. It counts as in vivo, rat.

In test [2] the test system is patients with chronic nonbacterial prostatitis. Particulars: typically orally administered; cited from earlier work.
The mark [3] stands for this setting: female rats, acetic acid infusion, intrathecal, doses of Table 1.
[4] abbreviates: urethane-anesthetized female rats, 0.5% acetic acid bladder infusion, intrathecal, two ascending doses (Table 1).

`NCC(CC(=O)O)c1ccc(Cl)cc1` (stereo not drawn) [Baclofen]: in test [1] (setting [3]), the “amplitude of bladder contractions” value is on record as “Neither baclofen nor ketorolac reduced the amplitude of bladder contraction”. Besides, the “frequency of acetic-acid-induced contractions compared with rate during saline infusion, both doses” value in test [1] (female rats, intrathecal) was “reduced the acetic-acid-induced contraction frequency in a dose-dependent manner without suppressing it below the normal rate of contraction observed with saline infusion”. Besides, the micturition reflex frequency entry in test [1] (setting [4]) is listed as “statistically significant only at the higher dose”; in test [1] (urethane-anesthetized female rats, 0.5% acetic acid bladder infusion, intrathecal, two ascending doses (Table 1), listed as baclofen), “suppressed micturition reflex frequency in a dose-dependent fashion”.

In the case of `O=C(c1ccccc1)c1ccc2n1CCC2C(=O)O` (stereo not drawn) [Ketorolac, Ketorolac tris], in test [1] (10 rats, intrathecal, lower dose (100 μg per Table 1)), the “rats exhibiting a lower reflex frequency, lower dose” value is listed as 8 of 10. Moreover, in test [1] (setting [3]), the “amplitude of bladder contractions” value is on record as “Neither baclofen nor ketorolac reduced the amplitude of bladder contraction”. The “frequency of acetic-acid-induced contractions compared with rate during saline infusion, both doses” value in test [1] (female rats, intrathecal) is “reduced the acetic-acid-induced contraction frequency in a dose-dependent manner without suppressing it below the normal rate of contraction observed with saline infusion”. The “rats in which reflex frequency was reduced, high dose” value in test [1] (ten rats tested, intrathecal, high dose (500 μg per Table 1)) is recorded as “each of the ten rats tested”. For the same molecule, the micturition reflex frequency result in test [1] (setting [4]) was “suppressed micturition reflex frequency in a dose-dependent fashion”.

As for `NCC1(CC(=O)O)CCCCC1` [Gabapentin], in test [1] (rat, in vivo), the “amplitude of bladder contractions” value is listed as “Neither of these drugs suppressed the amplitude of bladder contractions”; the “frequency of acetic-acid-induced bladder contractions compared with frequency during saline infusion, higher dose” value is recorded as “reduced the frequency of acetic-acid-induced bladder contractions to a level comparable to the normal frequency of contraction seen with saline infusion”; the micturition reflex frequency result is reported as “suppressed micturition reflex frequency in a dose-dependent fashion”; the “micturition reflex frequency at the higher dose” value was “effective at reducing the reflex frequency”. The “micturition reflex frequency at the lower dose” value in test [1] (rat, in vivo) was “not at the lower dose”.

For `CCCCN1CCCCC1C(=O)Nc1c(C)cccc1C` (stereo not drawn) [Bupivacaine, Bupivacaine HCl], the “amplitude of bladder contractions” value in test [1] (setting [3]) was “no effect on the amplitude of contraction”. In addition, the “frequency of acetic-acid-induced contractions compared with rate during saline infusion, both doses” value in test [1] (female rats, intrathecal) was “reduced the frequency of acetic-acid-induced contractions below the rate observed during saline infusion”. Also, the micturition reflex frequency entry in test [1] (urethane-anesthetized female rats, 0.5% acetic acid bladder infusion, intrathecal, two ascending doses (Table 1), HCl) is “suppressed micturition reflex frequency in a dose-dependent fashion; also recorded: appeared to suppress the micturition frequency at both doses”.

`Clc1cccc(Cl)c1N=C1NCCN1` [Clonidine, Clonidine HCl]: the micturition reflex frequency entry in test [1] (setting [4]) is “no measurable effect”.

With `CNCCCN1c2ccccc2CCc2ccccc21` [Desipramine, Desipramine HCl], the “amplitude of bladder contractions” value in test [1] (setting [3]) was “Neither of these drugs suppressed the amplitude of bladder contractions”. Also, in test [1] (female rats, acetic acid infusion, intrathecal, higher dose of Table 1), the “micturition reflex frequency at the higher dose” value is listed as “effective at reducing the reflex frequency”. In addition, the “micturition reflex frequency at the lower dose” value in test [1] (female rats, acetic acid infusion, intrathecal, lower dose of Table 1) was “not at the lower dose”. Also, the “frequency of acetic-acid-induced bladder contractions compared with frequency during saline infusion, higher dose” value in test [1] (female rats, intrathecal, higher dose of Table 1) is “reduced the frequency of acetic-acid-induced bladder contractions to a level comparable to the normal frequency of contraction seen with saline infusion”. For the same molecule, the micturition reflex frequency entry in test [1] (setting [4]) is reported as “suppressed micturition reflex frequency in a dose-dependent fashion”.

Consider pentosan polysulfate, for which the “patients for whom treatment proved successful” value in test [2] was “approximately 40%”.
